# According to the supplement of paper PMC10307832:
# Compound: COc1ccc(-c2ccc3c(N4CCOC[C@@H]4C)nc(N4CCOC[C@@H]4C)nc3n2)cc1CO [AZD8055] + CS(=O)(=O)N1CCN(Cc2cc3nc(-c4cccc5[nH]ncc45)nc(N4CCOCC4)c3s2)CC1 [Pictilisib] (partner 1 µM)
# Experiment: relative viability (nuclei count vs DMSO), 5 days (fraction); higher = more cells survive
# Outline: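 Relative viability equals treated-well nuclei counts divided by vehicle-well nuclei counts. Counts came from 4× images of lung cancer cell lines grown in 1536-well plates for 5 days after pin-tool dosing on the day after seeding. Dosing used one drug alone or a fixed anchor-drug dose plus five library-drug doses (not always all listed) in √10 steps, and values are medians of duplicate plates.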
Cell Line,relative viability (first compound 0.01 µM),relative viability (first compound 0.03162 µM),relative viability (first compound 0.1 µM),relative viability (first compound 0.3162 µM),relative viability (first compound 1 µM)
201T,0.623,0.606,0.521,0.495,0.472
A549,0.395,0.345,0.189,0.123,0.105
A-427,0.747,0.684,0.677,0.501,0.507
ABC-1,0.78,0.659,0.556,0.438,0.334
BEN,0.541,0.391,0.34,0.316,0.254
CAL-12T,0.393,0.341,0.349,0.322,0.213
COR-L23,0.95,0.478,0.35,0.16,0.17
COR-L 105,0.488,0.31,0.388,0.326,0.35
Calu-6,0.826,0.737,0.531,0.4,0.366
ChaGo-K-1,0.817,0.848,0.801,0.49,0.346
EBC-1,0.303,0.266,0.206,0.197,0.19
EKVX,0.485,0.44,0.3,0.245,0.169
EMC-BAC-2,0.511,0.494,0.475,0.279,0.286
EPLC-272H,0.339,0.307,0.23,0.261,0.212
H3255,0.518,0.45,0.249,0.277,0.272
HARA,0.372,0.257,0.198,0.24,0.17
HCC-15,0.806,0.685,0.631,0.369,0.338
HCC-44,0.447,0.396,0.376,0.267,0.347
HCC-78,0.216,0.218,0.164,0.178,0.164
HCC-366,0.0713,0.137,0.132,0.0885,0.0934
HCC-827,1.1,0.875,0.741,0.495,0.477
HOP-62,0.878,0.534,0.582,0.246,0.259
IA-LM,0.221,0.217,0.118,0.0814,0.0826
LC-2-ad,0.464,0.458,0.322,0.339,0.255
LCLC-97TM1,0.172,0.107,0.106,0.108,0.176
LCLC-103H,0.612,0.572,0.546,0.52,0.332

Cell Line,relative viability (first compound 0.01 µM),relative viability (first compound 0.03162 µM),relative viability (first compound 0.1 µM),relative viability (first compound 0.3162 µM),relative viability (first compound 1 µM)
LK-2,0.571,0.438,0.368,0.335,0.195
LOU-NH91,0.546,0.542,0.512,0.478,0.491
LU99A,0.281,0.18,0.168,0.195,0.22
LXF-289,0.83,0.673,0.556,0.411,0.454
NCI-H23,0.472,0.314,0.314,0.251,0.293
NCI-H322M,0.46,0.463,0.436,0.444,0.422
NCI-H358,0.334,0.301,0.233,0.222,0.245
NCI-H441,0.518,0.483,0.375,0.215,0.267
NCI-H460,0.338,0.295,0.262,0.226,0.264
NCI-H520,0.301,0.19,0.202,0.163,0.159
NCI-H596,0.341,0.363,0.32,0.308,0.337
NCI-H647,0.46,0.329,0.282,0.16,0.149
NCI-H650,0.905,0.736,0.623,0.307,0.304
NCI-H661,0.394,0.424,0.322,0.302,0.27
NCI-H727,0.4,0.379,0.28,0.225,0.283
NCI-H838,0.439,0.212,0.212,0.219,0.257
NCI-H1299,0.635,0.572,0.363,0.24,0.233
NCI-H1355,0.419,0.374,0.269,0.251,0.238
NCI-H1395,0.587,0.535,0.636,0.478,0.425
NCI-H1437,0.394,0.225,0.223,0.124,0.127
NCI-H1563,0.651,0.614,0.65,0.61,0.638
NCI-H1650,0.551,0.575,0.479,0.393,0.36
NCI-H1651,0.664,0.452,0.433,0.257,0.283
NCI-H1666,0.333,0.491,0.347,0.272,0.38
NCI-H1703,0.24,0.263,0.257,0.232,0.255
NCI-H1734,0.427,0.312,0.295,0.175,0.199

Cell Line,relative viability (first compound 0.01 µM),relative viability (first compound 0.03162 µM),relative viability (first compound 0.1 µM),relative viability (first compound 0.3162 µM),relative viability (first compound 1 µM)
NCI-H1755,0.39,0.312,0.274,0.253,0.271
NCI-H1792,0.235,0.229,0.142,0.112,0.094
NCI-H1793,0.288,0.268,0.177,0.238,0.156
NCI-H1915,0.879,0.715,0.851,0.706,0.487
NCI-H1944,0.323,0.302,0.278,0.275,0.287
NCI-H1975,0.257,0.209,0.183,0.179,0.176
NCI-H1993,0.752,0.701,0.892,0.637,0.896
NCI-H2009,0.762,0.441,0.561,0.343,0.333
NCI-H2023,0.215,0.195,0.137,0.12,0.116
NCI-H2085,0.458,0.394,0.347,0.319,0.346
NCI-H2087,1.06,0.704,0.574,0.446,0.328
NCI-H2126,0.478,0.52,0.385,0.362,0.415
NCI-H2170,0.273,0.255,0.213,0.222,0.23
NCI-H2228,0.244,0.273,0.159,0.263,0.287
NCI-H2347,0.65,0.601,0.357,0.322,0.428
NCI-H2405,0.503,0.398,0.316,0.182,0.223
NCI-H3122,0.549,0.47,0.337,0.272,0.29
PC-3 [JPC-3],0.616,0.81,0.645,0.633,0.381
PC-14,0.587,0.452,0.294,0.184,0.113
RERF-LC-KJ,0.566,0.452,0.426,0.309,0.289
SK-LU-1,0.525,0.395,0.327,0.28,0.298
SK-MES-1,0.311,0.355,0.299,0.181,0.236
SW 1573,0.504,0.438,0.38,0.205,0.181
UMC-11,0.905,0.604,0.503,0.272,0.254
